In brackets after ≈: the same amount, converted by molar mass. Read-outs that look alike come from different tables or passages of the source.
Legend:
GCN2 = system: GCN2; design: method as in PMID 25587754; conditions: biochemical inhibition of kinase activity; cited from earlier work
human GCN2 = target: T1, human GCN2 (Homo sapiens, UniProt Q9P2K8); experiment: radiometric HotSpot kinase assay; assay type: biochemical; conditions: ATP at the ATP Km of GCN2; means of two independent experiments
T1 construct: purchased Reaction Biology Corporation (Malvern, PA)
T1 sequence (Q9P2K8 whole entry): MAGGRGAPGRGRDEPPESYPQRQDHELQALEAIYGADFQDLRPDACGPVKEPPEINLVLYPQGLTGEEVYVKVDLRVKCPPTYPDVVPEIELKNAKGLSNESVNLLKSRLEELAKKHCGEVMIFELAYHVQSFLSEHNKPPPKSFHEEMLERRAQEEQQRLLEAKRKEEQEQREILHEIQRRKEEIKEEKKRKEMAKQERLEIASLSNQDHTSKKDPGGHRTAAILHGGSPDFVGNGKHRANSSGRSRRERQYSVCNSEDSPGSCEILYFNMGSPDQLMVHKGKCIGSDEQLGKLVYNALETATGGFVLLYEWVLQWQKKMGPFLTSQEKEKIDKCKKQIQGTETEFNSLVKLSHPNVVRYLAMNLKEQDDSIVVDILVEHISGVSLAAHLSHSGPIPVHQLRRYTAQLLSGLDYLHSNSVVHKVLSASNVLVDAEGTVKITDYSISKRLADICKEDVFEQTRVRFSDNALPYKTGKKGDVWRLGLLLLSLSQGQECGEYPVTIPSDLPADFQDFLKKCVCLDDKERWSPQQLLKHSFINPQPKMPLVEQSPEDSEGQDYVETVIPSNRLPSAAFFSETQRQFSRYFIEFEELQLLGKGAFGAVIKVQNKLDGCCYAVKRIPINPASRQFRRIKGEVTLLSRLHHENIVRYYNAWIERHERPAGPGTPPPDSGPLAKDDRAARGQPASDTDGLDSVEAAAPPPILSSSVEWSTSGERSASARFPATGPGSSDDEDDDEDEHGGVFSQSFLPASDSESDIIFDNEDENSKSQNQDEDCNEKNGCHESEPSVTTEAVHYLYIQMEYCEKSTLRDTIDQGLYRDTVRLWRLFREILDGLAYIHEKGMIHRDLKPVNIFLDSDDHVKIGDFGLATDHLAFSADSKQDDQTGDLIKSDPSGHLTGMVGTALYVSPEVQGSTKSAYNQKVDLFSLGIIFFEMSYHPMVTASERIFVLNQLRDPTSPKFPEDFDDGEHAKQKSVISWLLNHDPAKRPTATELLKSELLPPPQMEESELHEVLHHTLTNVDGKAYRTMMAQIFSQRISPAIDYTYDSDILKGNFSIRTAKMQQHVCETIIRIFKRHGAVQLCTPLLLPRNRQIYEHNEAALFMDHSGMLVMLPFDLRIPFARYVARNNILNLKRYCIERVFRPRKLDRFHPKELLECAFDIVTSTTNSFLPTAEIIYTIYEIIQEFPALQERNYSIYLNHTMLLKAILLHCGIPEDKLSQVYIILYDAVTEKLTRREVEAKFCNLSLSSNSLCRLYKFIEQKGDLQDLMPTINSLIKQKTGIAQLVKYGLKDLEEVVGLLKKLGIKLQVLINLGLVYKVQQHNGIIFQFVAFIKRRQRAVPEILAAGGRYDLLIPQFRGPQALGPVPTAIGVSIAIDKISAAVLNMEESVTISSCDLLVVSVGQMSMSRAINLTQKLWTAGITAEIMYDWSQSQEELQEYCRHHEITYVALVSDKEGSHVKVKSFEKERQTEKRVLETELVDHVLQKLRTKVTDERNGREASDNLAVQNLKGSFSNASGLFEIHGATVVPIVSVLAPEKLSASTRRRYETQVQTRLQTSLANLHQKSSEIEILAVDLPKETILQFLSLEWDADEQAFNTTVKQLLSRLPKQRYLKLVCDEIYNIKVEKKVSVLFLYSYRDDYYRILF
Protocol: (§1) Compounds 1–9 were screened in a radiometric […] kinase assay against human GCN2 and other kinases involved in the UPR and ISR pathways (Table 1). […] The most soluble of the potent tool compounds (1 and 2) were selected for in vitro cell-based assays where the phosphorylation of eIF2α (p-eIF2α) was used as a readout for GCN2 inhibition.
(§2) In vitro compound profiling for recombinant GCN2, PERK, HRI, PKR, or IRE1 kinases were performed at Reaction Biology Corporation (Malvern, PA) using the HotSpot kinase assay. Briefly, all compounds provided for testing were dissolved in 10 mM DMSO stock solutions. Serial dilutions were conducted by epMotion 5070 in DMSO. Specific kinase/substrate mixtures and required cofactors were prepared in reaction buffer (20 mM Hepes (pH 7.5), 10 mM MgCl2, 1 mM EGTA, 0.02% Brij35, 0.02 mg/ml BSA, 0.1 mM Na3VO4, 2 mM DTT, 1% DMSO). Compounds were added to the kinase reaction mixture by Acoustic technology (Echo550; nanoliter range) and incubated for 20 min at room temperature. The kinase reaction was initiated by adding ^33P ATP to a final concentration of 10 μM for single point kinase activity reading or to the ATP Km of GCN2 for IC50 readings. The reaction was incubated or 2 h at room temperature and kinase activity was detected by filter-binding method. IC50 values and curves were generated with GraphPad Prism 7 (GraphPad software).

PERK = target: T2, PERK (Homo sapiens, UniProt Q9NZJ5); experiment: radiometric HotSpot kinase assay; assay type: biochemical; conditions: read-out: % Enzyme inhibition at 10 μM, PERK
T2 construct: purchased Reaction Biology Corporation (Malvern, PA)
T2 sequence (Q9NZJ5 30-1116): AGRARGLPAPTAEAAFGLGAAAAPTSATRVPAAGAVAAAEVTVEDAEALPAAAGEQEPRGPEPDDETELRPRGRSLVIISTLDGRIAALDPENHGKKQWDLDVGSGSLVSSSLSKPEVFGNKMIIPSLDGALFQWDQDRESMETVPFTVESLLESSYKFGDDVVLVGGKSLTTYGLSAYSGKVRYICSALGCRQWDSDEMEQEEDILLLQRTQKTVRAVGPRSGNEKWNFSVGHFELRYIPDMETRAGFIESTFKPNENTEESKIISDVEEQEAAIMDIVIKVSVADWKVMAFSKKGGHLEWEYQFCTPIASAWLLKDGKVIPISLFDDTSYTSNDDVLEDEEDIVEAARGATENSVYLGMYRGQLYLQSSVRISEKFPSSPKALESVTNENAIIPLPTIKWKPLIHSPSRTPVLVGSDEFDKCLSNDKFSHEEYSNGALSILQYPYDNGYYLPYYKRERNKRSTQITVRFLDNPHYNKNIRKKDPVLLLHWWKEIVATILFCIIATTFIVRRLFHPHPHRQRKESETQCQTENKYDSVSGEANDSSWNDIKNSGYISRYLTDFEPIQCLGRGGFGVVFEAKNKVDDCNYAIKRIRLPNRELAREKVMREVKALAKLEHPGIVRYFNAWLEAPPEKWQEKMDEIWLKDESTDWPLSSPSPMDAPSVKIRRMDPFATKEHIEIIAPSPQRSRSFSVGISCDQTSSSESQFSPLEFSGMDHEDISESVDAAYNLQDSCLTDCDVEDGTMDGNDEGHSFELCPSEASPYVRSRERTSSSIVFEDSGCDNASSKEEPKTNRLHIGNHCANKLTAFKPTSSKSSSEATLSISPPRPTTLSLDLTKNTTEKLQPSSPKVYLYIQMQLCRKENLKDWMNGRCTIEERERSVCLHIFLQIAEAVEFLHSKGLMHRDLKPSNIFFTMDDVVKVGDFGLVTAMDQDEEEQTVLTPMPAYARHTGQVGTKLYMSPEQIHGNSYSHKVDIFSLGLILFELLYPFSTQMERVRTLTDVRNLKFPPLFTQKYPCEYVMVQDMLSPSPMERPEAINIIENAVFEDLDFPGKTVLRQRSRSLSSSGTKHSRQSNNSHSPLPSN
Protocol: as §2, with “Serial dilutions were conducted by epMotion 5070 in DMSO.” left out, “The kinase reaction was initiated by adding ^33P ATP to a final concentration of 10 μM for single point kinase activity reading or to the ATP Km of GCN2 for IC50 readings.” left out

HRI = target: T3, HRI (Homo sapiens, UniProt Q9BQI3); experiment: radiometric HotSpot kinase assay; assay type: biochemical; conditions: 10 μM compound, 10 μM ATP; read-out: % Enzyme inhibition at 10 μM, HRI
T3 construct: purchased Reaction Biology Corporation (Malvern, PA)
T3 sequence (Q9BQI3 whole entry): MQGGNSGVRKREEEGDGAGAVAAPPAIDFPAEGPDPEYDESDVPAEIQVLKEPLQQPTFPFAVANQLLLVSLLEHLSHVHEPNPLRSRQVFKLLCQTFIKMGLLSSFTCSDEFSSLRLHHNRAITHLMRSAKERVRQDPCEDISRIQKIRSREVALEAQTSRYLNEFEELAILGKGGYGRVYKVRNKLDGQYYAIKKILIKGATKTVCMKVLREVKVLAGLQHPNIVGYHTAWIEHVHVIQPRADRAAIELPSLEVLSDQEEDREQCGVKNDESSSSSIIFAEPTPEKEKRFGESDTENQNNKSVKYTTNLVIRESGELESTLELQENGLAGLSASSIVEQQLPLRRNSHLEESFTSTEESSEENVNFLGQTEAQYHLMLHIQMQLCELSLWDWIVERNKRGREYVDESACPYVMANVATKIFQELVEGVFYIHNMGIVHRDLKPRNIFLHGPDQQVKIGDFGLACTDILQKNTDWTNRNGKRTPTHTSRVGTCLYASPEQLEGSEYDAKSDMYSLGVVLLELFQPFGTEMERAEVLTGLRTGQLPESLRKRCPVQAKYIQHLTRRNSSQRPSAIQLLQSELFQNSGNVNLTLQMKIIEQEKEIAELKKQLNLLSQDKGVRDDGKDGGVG
Protocol: as §1, §2

IRE1 = target: T4, IRE1 (Homo sapiens, UniProt O75460); experiment: radiometric HotSpot kinase assay; assay type: biochemical; conditions: 10 μM compound, 10 μM ATP; read-out: % Enzyme inhibition at 10 μM, IRE1
T4 construct: purchased Reaction Biology Corporation (Malvern, PA)
T4 sequence (O75460 19-977): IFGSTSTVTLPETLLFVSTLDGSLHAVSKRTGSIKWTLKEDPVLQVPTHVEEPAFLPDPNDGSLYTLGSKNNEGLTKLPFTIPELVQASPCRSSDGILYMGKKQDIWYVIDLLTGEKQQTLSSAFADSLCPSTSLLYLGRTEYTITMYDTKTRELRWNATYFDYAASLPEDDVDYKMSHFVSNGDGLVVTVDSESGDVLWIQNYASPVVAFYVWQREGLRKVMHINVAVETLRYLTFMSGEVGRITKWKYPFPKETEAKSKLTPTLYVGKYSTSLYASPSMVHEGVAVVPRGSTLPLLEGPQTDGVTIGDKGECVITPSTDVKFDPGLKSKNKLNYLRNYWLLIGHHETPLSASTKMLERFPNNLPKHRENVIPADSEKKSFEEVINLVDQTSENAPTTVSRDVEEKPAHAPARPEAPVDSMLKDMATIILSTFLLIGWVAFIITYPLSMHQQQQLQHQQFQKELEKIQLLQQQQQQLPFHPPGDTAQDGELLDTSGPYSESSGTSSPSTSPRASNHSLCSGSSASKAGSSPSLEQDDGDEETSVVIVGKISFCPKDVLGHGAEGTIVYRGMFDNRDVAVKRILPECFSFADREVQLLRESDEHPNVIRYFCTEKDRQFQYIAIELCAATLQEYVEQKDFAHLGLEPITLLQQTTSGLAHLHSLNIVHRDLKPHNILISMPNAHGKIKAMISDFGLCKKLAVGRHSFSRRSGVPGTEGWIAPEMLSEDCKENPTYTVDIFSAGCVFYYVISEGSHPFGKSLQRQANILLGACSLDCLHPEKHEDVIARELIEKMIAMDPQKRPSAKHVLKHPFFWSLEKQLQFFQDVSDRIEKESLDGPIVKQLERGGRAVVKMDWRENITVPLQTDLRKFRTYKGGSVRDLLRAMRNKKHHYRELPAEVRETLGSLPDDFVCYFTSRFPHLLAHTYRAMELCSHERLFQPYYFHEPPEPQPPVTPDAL
Protocol: as §1, §2

PKR = target: T5, PKR (Homo sapiens, UniProt P19525); experiment: radiometric HotSpot kinase assay; assay type: biochemical; conditions: 10 μM compound, 10 μM ATP; read-out: % Enzyme inhibition at 10 μM, PKR
T5 construct: purchased Reaction Biology Corporation (Malvern, PA)
T5 sequence (P19525 whole entry): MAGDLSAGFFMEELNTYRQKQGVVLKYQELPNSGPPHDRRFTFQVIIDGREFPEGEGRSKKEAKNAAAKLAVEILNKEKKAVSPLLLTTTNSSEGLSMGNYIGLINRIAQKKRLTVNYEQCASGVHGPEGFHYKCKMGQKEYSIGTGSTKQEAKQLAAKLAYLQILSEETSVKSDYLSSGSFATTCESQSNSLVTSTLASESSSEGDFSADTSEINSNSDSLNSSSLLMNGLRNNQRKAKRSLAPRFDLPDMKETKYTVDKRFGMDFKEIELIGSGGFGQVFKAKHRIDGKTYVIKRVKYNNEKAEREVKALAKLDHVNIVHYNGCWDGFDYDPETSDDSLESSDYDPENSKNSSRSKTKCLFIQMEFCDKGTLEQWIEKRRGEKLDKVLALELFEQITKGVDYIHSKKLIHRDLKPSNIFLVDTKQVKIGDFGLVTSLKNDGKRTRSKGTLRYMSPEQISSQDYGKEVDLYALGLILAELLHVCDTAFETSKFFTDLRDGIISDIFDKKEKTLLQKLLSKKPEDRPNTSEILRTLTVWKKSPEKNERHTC
Protocol: as §1, §2

Kinetic solubility assay = assay type: physicochemical; conditions: aqueous buffer, kinetic from dmso stock; PBS pH 7.4, 25 °C, 2 h
Protocol: Compound solubility was determined in PBS at pH 7.4 by Pharmaron, Inc. (Beijing, China). Briefly, all compounds and control solutions were prepared in DMSO at concentrations of 10 mM. Diclofenac was used as a positive control. 10 μL or 30 μL of each compound was added into a 96-well plate, followed by adding 990 μL or 970 μL, respectively, of PBS at pH 7.4. A stir stick was added to each well and wells were sealed using a molded PTDE/SIL 96-Well Plate Cover. […] After incubation the samples were transferred into the filter plate and filtered by Vacuum Manifold. The filtered samples were diluted with methanol to obtain 3 μM standards (STD). The samples were analyzed by LC-MS/MS against a standard of known concentration in DMSO. The solubility values of duplicate test compounds were calculated in Microsoft Excel using the following equation, where DF means dilution factor: Sample=AREASample×INJVOLStd×DFSample×STD/AREAStd×INJVOLSample

[1] = Permeability assay (PAMPA); assay type: in vitro ADME; conditions: pH 7.4, 25 °C, <10 low, >10 high permeability
Protocol: GCN2 compound permeability was determined by PAMPA and was performed by Pharmaron, Inc. (Beijing, China). All compounds and control stock solutions were prepared in DMSO at a concentration of 10 mM. Testosterone and methotrexate were used as control compounds. Compound stock solutions were diluted with PBS (pH 7.4) to a final concentration of 10 μM. A 1.8% solution (w/v) of lecithin in dodecane was prepared and sonicated to ensure a complete dissolution. 5 μL of the lecithin/dodecane mixture were pipetted into each acceptor plate well (top compartment). Immediately after the application of the artificial membrane (within 10 min), 300 μL of PBS (pH 7.4) solution were added to each well of the acceptor plate. 300 μL of drug-containing solutions were added to each well of the donor plate (bottom compartment) in triplicate. The plate lid was replaced and incubated at 25 °C, 60 rpm for 16 h. After incubation, aliquots of 50 μL from each well of acceptor and donor plate were transferred into a 96-well plate and 200 μL of methanol (containing IS: 100 nM Alprazolam, 200 nM Labetalol and 2 μM Ketoprofen) was added to each well. The plate was vortexed at 750 rpm for 100 s. Samples were centrifuged at 3220g for 20 min. The compound concentrations were determined by LC/MS/MS. The effective permeability (Pe), in units of centimeter per second were calculated using the following equation: logPe=logC×−ln1−drugacceptor/drugequilibrium

Structure (SMILES) | IC50 (GCN2) [nM] | IC50 (human GCN2) [nM] | inhibition at 10 µM (PERK; 10 μM compound, 10 μM ATP) [%] | inhibition at 10 µM (HRI) [%] | inhibition at 10 µM (IRE1) [%] | inhibition at 10 µM (PKR) [%] | solubility at 2 h (Kinetic solubility assay) [µM] | Papp at 16 h, 10 μM [1] [×10⁻⁶ cm/s] | inhibition at 10 µM (PERK) [%]
CNc1ncc2c(F)c(-c3c(C)ccc(C(=O)c4c(-c5ccccc5)n(C)n(-c5ccccc5)c4=O)c3N)ccc2n1 [4-{2-amino-3-[5-fluoro-2-(methylamino)quinazolin-6-yl]-4-methylbenzoyl}-1-methyl-2,5-diphenyl-1,2-dihydro-3H-pyrazol-3-one] | 36 | – | – | – | – | – | – | – | –
CCOc1ccc(-n2nnc3cnc(Nc4cnn(C5CCOCC5)c4)nc32)cc1 [Compound 3, 3-(4-Ethoxyphenyl)-N-(1-(tetrahydro-2H-pyran-4-yl)-1H-pyrazol-4-yl)-3H-[1,2,3]triazolo[4,5-d]pyrimidin-5-amine] | – | 44.5 | 25 | – | – | – | – | – | –
Fc1cc(-n2nnc3cnc(Nc4cnn(C5CCOCC5)c4)nc32)ccc1Cl [Compound 4, 3-(4-Chloro-3-fluorophenyl)-N-(1-(tetrahydro-2H-pyran-4-yl)-1H-pyrazol-4-yl)-3H-[1,2,3]triazolo[4,5-d]pyrimidin-5-amine] | – | 25.7 | < 10 | < 10 | 18 | 96 | 0.05 (≈ 0.0207 µg/mL) | 2.19 | –
COC(=O)c1ccc(-n2nnc3cnc(Nc4cnn(C5CCOCC5)c4)nc32)cc1 [Compound 5, Methyl 4-(5-((1-(tetrahydro-2H-pyran-4-yl)-1H-pyrazol-4-yl)amino)-3H-[1,2,3]triazolo[4,5-d]pyrimidin-3-yl)benzoate] | – | 17.2 | < 10 | < 10 | 22 | 96 | 0.2 (≈ 0.0841 µg/mL) | 10.5 | –
c1nn(C2CCOCC2)cc1Nc1ncc2nnn(-c3ccc4cn[nH]c4c3)c2n1 [Compound 6, 3-(1H-Indazol-6-yl)-N-(1-(tetrahydro-2H-pyran-4-yl)-1H-pyrazol-4-yl)-3H-[1,2,3]triazolo[4,5-d]pyrimidin-5-amine] | – | 20.5 | 35 | – | – | – | – | – | –
CCOc1ccc(-n2nnc3cnc(Nc4cnn([C@H]5CC[C@H](O)CC5)c4)nc32)cc1 [Compound 7, trans-4-(4-((3-(4-Ethoxyphenyl)-3H-[1,2,3]triazolo[4,5-d]pyrimidin-5-yl)amino)-1H-pyrazol-1-yl)cyclohexan-1-ol] | – | 22.4 | 24 | – | – | – | – | – | –
O[C@H]1CC[C@H](n2cc(Nc3ncc4nnn(-c5ccc(Cl)c(F)c5)c4n3)cn2)CC1 [Compound 8, trans-4-(4-((3-(4-chloro-3-fluorophenyl)-3H-[1,2,3]triazolo[4,5-d]pyrimidin-5-yl)amino)-1H-pyrazol-1-yl)cyclohexan-1-ol] | – | 21.1 | < 10 | < 10 | 15 | 98 | 0.1 (≈ 0.0429 µg/mL) | 4.68 | –
COC(=O)c1ccc(-n2nnc3cnc(Nc4cnn([C@H]5CC[C@H](O)CC5)c4)nc32)cc1 [Compound 9, methyl 4-(5-((1-(trans-4-hydroxycyclohexyl)-1H-pyrazol-4-yl)amino)-3H-[1,2,3]triazolo[4,5-d]pyrimidin-3-yl)benzoate] | – | 46.4 | 14 | < 10 | 24 | 95 | 0.17 (≈ 0.0739 µg/mL) | 2.29 | –
Cc1cccc(CC(=O)N2CCc3c2ccc(-c2cn(C)c4ncnc(N)c24)c3F)n1 [GSK2656157, reference compound] | – | > 10000 | – | – | – | – | – | – | 100
